Test results reported in patent publication US20150030544A1, “Enzymatic Nanosensor Compositions and Methods” (Northeastern University, priority 2012, published 2015).

Settings: mice, 75 mg/kg i.p., averaged data of three experiments, model fit
Description: Enzyme nanosensor solutions were prepared using concentrated O2NS nanosensors (25 μL, ˜10^13 particles) and DAO (50 μL, 1.75IU). As a control, O2NS injections were made with concentrated nanosensors (25 μL) diluted with 50 μL of PBS. […] Mice were weighed, anesthetized with isoflurane (2% isoflurane, 98% oxygen), and placed in the IVIS imager. Two intradermal 30 μL injections of nanosensors were made along the midline of the back. Enzyme nanosensor was injected posterior to O2NS. After injection the animals are imaged every 30 seconds for 30 minutes. […] The mice were imaged for an additional 45 minutes to 1 hour. All animals were sacrificed after the end of the experiment. Three separate experiments were performed with new mice and fresh batches of nanosensor solution.
For data analysis, a region of interest encompassing the injection area was selected and intensity was recorded. […] The difference in normalized signals between the enzymatic nanosensors and O2NS was calculated for each mouse. […] The average data was then fit to a single compartment open model: Equation (1)
Where I is the normalized fluorescent intensity difference, A is a scaling parameter, ka and ke are the absorption and elimination rate constants and tlag is the lag time. The parameters ka, ke, and tlag were fit using the method of residuals and A was fit using least squares minimization for plotting purposes.

Cl.Cl.NCCc1c[nH]cn1 [histamine, histamine dihydrochloride]
lag time: 4.8 min
